Measurements from patent publication US7345091B2, “Carotenoid ether analogs or derivatives for the inhibition and amelioration of disease” (Cardax Pharmaceuticals, Inc., priority 2002, dated 2008).
Read-outs that look alike come from different tables or passages of the source. Values belong to the molecule of their own block, whether it stands above or below them.

Experiments:
[1] = biological target: human serum albumin (HSA) (Homo sapiens, UniProt P02768)
[2] = tested on: superoxide anion; assay: Superoxide anion scavenging by EPR (DEPMPO spin trap) in phorbol ester-stimulated isolated neutrophils; type: cell-based, human; settings: for Mean (% inhibition) of superoxide anion signal: 0.1 mM; for reduction of superoxide anion signal: aqueous
Method: In an experiment, neutrophils were isolated on a Percoll gradient from whole blood from a human volunteer. The isolated neutrophils were then re-suspended in phosphate-buffered saline, and maximally stimulated with phorbol ester to induce the respiratory burst and production of superoxide anion. To the solution of activated human neutrophils, the disodium salt disuccinate astaxanthin derivative XVI was added at various concentrations, and the superoxide signal [as measured with electron paramagnetic resonance (EPR) spectroscopy] was subsequently measured. […] The disodium salt disuccinate astaxanthin derivative XVI tested at 100 μM scavenged 28% of the total signal. At 3 mM, almost no superoxide signal remained. […] In addition to reducing the superoxide anion signal important in ischemia-reperfusion injury, it is also likely that myocardial salvage can be achieved with the described carotenoid derivative, as superoxide anion plays a major role in tissue injury and death during prolonged myocardial ischemia. In a third experiment, neutrophils were again isolated on a Percoll gradient from whole blood from a second human volunteer. The isolated neutrophils were then re-suspended in phosphate-buffered saline, and maximally stimulated with phorbol ester to induce the respiratory burst and production of superoxide anion. […] Astaxanthin 2E was dissolved in HPLC grade dimethylsulfoxide (DMSO; Sigma-Aldrich, St. Louis, Mo.). The disodium disuccinate derivatives XVI of astaxanthin 2E were tested separately in […] formulations: statistical mixture of stereoisomers (as for astaxanthin, above, a 1:2:1 mixture of all-E; labeled as “mixture” in all tables and figures); 3S,3'S, and 3R,3'R (optical isomers or enantiomers); and meso (mixture of identical 3S,3'R and 3'S,3R; diastereomers of the enantiomeric pair). […] The disuccinate derivatives were first tested at the appropriate final concentrations in pure aqueous solution (deionized water) from stock solutions of 10 mM. Each of the four disuccinate derivatives were then tested from stock solutions prepared in a 1:2 mixture of ethanol (final concentration of EtOH in stock solution 331⁄3%; final concentration in isolated neutrophil assay 0.3%; HPLC grade ethanol, Sigma-Aldrich, St. Louis, Mo.) at 10 mM. […] Metaphore® Pharmaceuticals, Inc., St. Louis, Mo.) were also performed. Human polymorphonuclear leukocytes (PMNs) were isolated from freshly sampled venous blood of a single volunteer by Percoll density gradient centrifugation, which yielded PMNs with a purity of >95%. Each 10 mL of whole blood was mixed with 0.8 mL of 0.1 M EDTA and 25 mL of saline. The diluted blood was layered over 9 mL of Percoll at a specific density of 1.080 g/mL. After centrifugation at 400×g for 20 min at 20° C., the plasma, mononuclear cell, and Percoll layers were removed. Erythrocytes were lysed by addition of 18 mL of ice-cold water for 30 s, followed by 2 mL of 10× PIPES buffer (25 mM PIPES, 110 mM NaCl, and 5 mM KCl, titrated to pH 7.4 with NaOH). Cells were pelleted at 4° C., the supernatant was decanted, and the procedure was repeated. After the second hypotonic lysis, cells were washed twice with PAG buffer (PIPES buffer containing 0.003% human serum albumin and 0.1% glucose). Afterward, PMNs were counted by light microscopy on a hemocytometer. The final pellet was then suspended in PAG-CM buffer (PAG buffer with 1 mM CaCl2 and 1 mM MgCl2). All EPR measurements were performed using a Bruker ER 300 EPR spectrometer operating at X-band with a TM110 cavity. The microwave frequency was measured with a Model 575 microwave counter (EIP Microwave, Inc., San Jose, Calif.). To measure O^ -2 generation from phorbol-ester (PMA)-stimulated PMNs, EPR spin-trapping studies were performed using DEPMPO (Oxis, Portland, Oreg.) at 10 mM. 1×10^6 PMNs were stimulated with PMA (1 ng/mL) and loaded into capillary tubes for EPR measurements. […]

[3] = tested on: Cx43 protein; assay: Cx43 protein expression by stereoisomer forms (immuno-(Western) blotting, 4 days); type: cell-based, mouse; settings: 1×10^-5 M in 1:2 ethanol/H2O, four days; vs 1:2 ethanol/H2O alone
Method: (2) Molecular Studies. […] Briefly, mouse embryonic fibroblast C3H10T1/2 cells were cultured in Eagle's basal medium with Earle's salts (Atlanta Biologicals, Atlanta, Ga.), supplemented with 5% fetal calf serum (Atlanta Biologicals, Atlanta, Ga.) and 25 μg/mL gentamicin sulfate (Sigma, St. Louis, Mo.), and incubated at 37° C. in 5% CO2. On the 7th day after seeding in 100 millimeter (mm) dishes, the confluent cells were treated for four days with the disodium salt disuccinate astaxanthin derivatives XVI and then harvested and analyzed for Cx43 protein induction as described. Protein content was measured using the Protein Assay Reagent kit (Pierce Chemical Co., Rockford, Ill.) according to manufacturer's instructions. Cell lysates containing 100 μg of protein were analyzed by Western blotting using the NuPage western blotting kit and apparatus (Invitrogen, Carlsbad, Calif.) and Cx43 protein detected using a rabbit polyclonal antibody (Zymed, San Francisco, Calif.) raised against a synthetic polypeptide corresponding to the C-terminal domain of mouse, human and rat Cx43. Cx43 immunoreactive bands were visualized by chemiluminescence using an anti-rabbit HRP-conjugated secondary antibody (Pierce Chemical Co., Rockford, Ill.). Digital images were obtained with a cooled CCD camera, and quantitative densitometry was then performed (Bio-Rad, Richmond, Calif.).

[4] = Determination of water solubility; type: physicochemical
Method: A total of 30 mg of sample (disodium disuccinate astaxanthin derivative, as the all-trans mixture of stereoisomers 3S,3′S, meso, and 3R,3′R in a 1:2:1 ratio) was added to 2 mL of sterile-filtered ([…] Millipore®) deionized (DI) water in a 15 mL glass centrifuge tube. The tube was wrapped in aluminum foil and the mixture was shaken for 2 hours, then centrifuged at 3500 rpm for 10 minutes. The aqueous solution was filtered through a 0.45 micron PVDF disposable filter device. A 1 mL volume of filtrate was then diluted appropriately with DI water, and the concentration of the solution was measured at 480 nm using a four point calibration curve prepared from fresh sample.

[5] = for behavior as radical quencher compared with non-esterified, free astaxanthin: formation of carotenoid radical cation
Text: FIG. 27 and FIG. 28 depict the results of spectral analysis after flash photolysis of the formation of triplet and carotenoid cation radical states for non-esterified, free astaxanthin 2E and the diacid disuccinate astaxanthin derivative XV were obtained. Formation of the carotenoid cation radical is a measure of the potential biophysical behavior of the novel derivative as an antioxidant. If a derivative retains the antioxidant behavior of non-esterified, free astaxanthin, then all previously documented (i.e. literature precedent) therapeutic applications for astaxanthin can be reasonably assumed for the novel derivative, including at least singlet oxygen quenching, lipid peroxidation chain-breaking, and/or direct radical scavenging.
In this experiment, nitronaftalin (NN) was used as the photosensitizer. After irradiation, the excited sensitizer (NN*) forms a sensitizer triplet (^3NN). When ^3NN encounters a carotenoid, energy and electron transfer reactions with ^3NN take place. The resulting relatively stable ^3car and carotenoid cation radicals (car*^+) are detected by characteristic absorption bands. Non-polar solvents (e.g. hexane) favor the formation of ^3car, and more polar solvents (alcohols, water) favor the formation of the car.^+. The anion radical of the sensitizer (NN.^−) is not typically seen because of a low absorption coefficient.
The ^3car decays rather quickly. After 15 μs, half of the ^3car has disappeared, and after 50 μs, no ^3car is left.
The spectrum of asta 2E is nearly identical to that of astaCOOH XV. After 50 μs, the ^3car has disappeared. During this time frame, the car.^+ is stable. Negative and positive peaks in the absorption spectra for astaCOOH XV and asta 2E are superimposable.

Sequence of human serum albumin (HSA) (P02768 25-609): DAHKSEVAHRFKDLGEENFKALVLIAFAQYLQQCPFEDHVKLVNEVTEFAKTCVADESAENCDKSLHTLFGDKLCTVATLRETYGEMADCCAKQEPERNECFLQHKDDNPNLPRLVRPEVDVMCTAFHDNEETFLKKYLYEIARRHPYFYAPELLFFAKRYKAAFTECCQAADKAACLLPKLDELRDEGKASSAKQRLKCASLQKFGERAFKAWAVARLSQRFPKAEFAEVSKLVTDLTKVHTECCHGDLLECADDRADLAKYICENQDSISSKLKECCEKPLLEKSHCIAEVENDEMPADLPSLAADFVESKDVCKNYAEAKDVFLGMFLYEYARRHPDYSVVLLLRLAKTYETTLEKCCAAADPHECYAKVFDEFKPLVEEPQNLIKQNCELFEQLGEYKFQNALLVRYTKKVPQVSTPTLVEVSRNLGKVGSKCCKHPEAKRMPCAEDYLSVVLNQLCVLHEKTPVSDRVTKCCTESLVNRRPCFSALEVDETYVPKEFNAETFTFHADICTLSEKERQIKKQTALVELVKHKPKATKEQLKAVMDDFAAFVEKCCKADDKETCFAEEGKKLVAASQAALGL

SMILES: CC1=C(/C=C/C(C)=C/C=C/C(C)=C/C=C/C=C(C)/C=C/C=C(C)/C=C/C2=C(C)C(=O)[C@H](OC(=O)CCC(=O)[O-])CC2(C)C)C(C)(C)C[C@H](OC(=O)CCC(=O)[O-])C1=O.[Na+].[Na+] [Meso, disodium salt disuccinate derivative XVI (dAST) of synthetic meso-astaxanthin (3R,3′S-dihydroxy-β,β-carotene-4,4′-dione)]
quenching of the intrinsic fluorescence of HSA ([1]; 0.1 M pH 7.4 phosphate buffer, 37° C.): able to effectively quench the intrinsic fluorescence of HSA | decrease of baseline fluorescence intensity of HSA ([1]; L/P ratio of 0.7, 0.1 M pH 7.4 phosphate buffer, 37° C.): 50% | mode of binding to HSA ([1]; low ligand/protein molar ratios, pH 7.4 Ringer buffer): monomeric form | Mean (% inhibition) of superoxide anion signal ([2]; Solvent EtOH (1:2 EtOH/water stock, 0.3% final)): 42.5% | Mean (% inhibition) of superoxide anion signal ([2]; Solvent Water): 15.7% | expression of Cx43 protein [3]: increase expression of Cx43 protein

water solubility [4]: highly water soluble
SMILES: CC(C=CC=C(C)C=CC1=C(C)C(=O)C(OC(=O)CCC(=O)OCC(O)C2OC(=O)C(O)=C2O)CC1(C)C)=CC=CC=C(C)C=CC=C(C)C=CC1=C(C)C(=O)C(OC(=O)CCC(=O)OCC(O)C2OC(=O)C(O)=C2O)CC1(C)C (stereo not drawn) [XXIII, Succinic acid 4-[18-(4-{3-[2-(3,4-dihydroxy-5-oxo-2,5-dihydrofuran-2-yl)-2-hydroxy-ethoxycarbonyl]-propionyloxy}-2,6,6-trimethyl-2-oxo-cyclohex-1-enyl)-3,7,12,16-tetramethyl-octadeca-1,3,5,7,9,11,13,15,17-nonaenyl]-3,5,5-trimethyl-2-oxo-cyclohex-3-enyl ester 2-(3,4-dihydroxy-5-oxo-2,5-dihydrofuran-2-yl)-2-hydroxy-ethyl ester]
increase in radical scavenging potency over the disodium disuccinate astaxanthin derivative (XVI) [2]: 50 fold | inhibition of superoxide anion signal ([2]; 60 μM, without a co-solvent): nearly complete inhibition | concentration at which complete suppression of the superoxide anion signal was achieved ([2]; activated human neutrophils, EPR): 60 µM

solubility at 2 h ([4]; deionized water, water, thermodynamic from solid, pure aqueous formulation): > 50 mg/mL
SMILES: CC1=C(/C=C/C(C)=C/C=C/C(C)=C/C=C/C=C(C)/C=C/C=C(C)/C=C/C2=C(C)C(=O)C(OC(=O)C(N)CCCCN)CC2(C)C)C(C)(C)CC(OC(=O)C(N)CCCCN)C1=O.Cl.Cl.Cl (stereo not drawn) [XX, Tetrahydrochloride Salt of the Dilysinate Ester of Astaxanthin]
reduction of superoxide anion signal ([2]; 1 μM): approximately 5% | reduction of superoxide anion signal ([2]; 3 mM): 98%

stability of the carotenoid cation radical (car.+) [5]: stable within this time frame
SMILES: CC1=C(/C=C/C(C)=C/C=C/C(C)=C/C=C/C=C(C)/C=C/C=C(C)/C=C/C2=C(C)C(=O)C(OC(=O)CCC(=O)O)CC2(C)C)C(C)(C)CC(OC(=O)CCC(=O)O)C1=O (stereo not drawn) [XV, Succinic Acid mono-(4-{18-[4-(3-carboxy-propionyloxy)-2,6,6-trimethyl-3-oxo-cyclohex-1-enyl]-3,7,12,16-tetramethyl-octadeca-1,3,5,7,9,11,13,15,17-nonaenyl}-3,5,5-trimethyl-2-oxo-cyclohex-3-enyl) ester]
time after which half of the 3car (carotenoid triplet) has disappeared ([5]; acetonitrile, sensitizer NN): 15 μs | time after which no 3car (carotenoid triplet) is left ([5]; acetonitrile, sensitizer NN): 50 μs | behavior as radical quencher compared with non-esterified, free astaxanthin ([5]; acetonitrile, sensitizer NN): behaves like asta 2E | behavior as radical quencher compared with non-esterified, free astaxanthin ([5]; acetonitrile, sensitizer NN, listed as astaCOOH): identically to non-esterified, free racemic astaxanthin
